Laboratory results: patent US7033578B2, “Antimycotic nail varnish composition” (Polichem S.A., priority 2000, dated 2006)

Test system: Tricophytes Mentagrophytes
Assay: Inhibition of growth of the onychomycosis pathogen on standard plates (Sabourand Dex., 30° C.)
Assay type: cell-based
Conditions: ciclopirox 8%, hydroxypropylchitosan 1%; Sabourand Dex. at 30° C.; 10, 20 and 30 μl applied
Experimental: Inhibition of the pathogen responsible for onychomycosis in humans was tested in accordance with standard procedures on standard plates. Comparison of the antimycotic effect of ciclopirox (8%) alone and, hydroxypropychitosan (1%) alone with the combination of these two compounds (8 and 1%, respectively) with respect to the growth of Tricophytes Mentagrophytes on Sabourand Dex. at 30° C. gave the following results (amounts applied in each case 10, 20 and 30 μl): […]

SMILES: Cc1cc(C2CCCCC2)n(O)c(=O)c1 [ciclopirox]
- antimycotic effect: inhibition of growth of Tricophytes Mentagrophytes: good inhibition
